Source: paper PMC6832230, “Anti-Inflammatory Activity of Some Characteristic Constituents from the Vine Stems of Spatholobus suberectus” (Molecules, 2019)
“Also recorded” adds a separate entry of the source. Like-named read-outs stand apart in the source and are kept apart here.

Columns and labels:
[1] = test system: nitric oxide (NO) production in RAW264.7 macrophages stimulated by lipopolysaccharide; experiment: NO inhibition assay (Griess method) in LPS-stimulated RAW264.7 cells; type: cell-based; details: for IC50: read-out: IC50 of inhibition of NO production; for SI (selectivity index): calculated from CC50 and IC50
Source text: As a kind of pro-inflammatory mediator, NO plays a complex role and participates in many different kinds of inflammatory reactions, the level of which usually varies to different pathological degrees. The isolated novel compounds and 10 known ones in this research were chosen to evaluate the activity of inhibiting NO released by RAW264.7 cells after being stimulated by LPS.
The Griess method is generally used for determining NO concentration in anti-inflammatory experiments. The supernatant removed from the 96-well plates mentioned in Section 3.3.1 was interacted with Griess reagent (100 μL), and the absorbance was measured at 540 nm after 15 min. Two drugs, L-NIL and IND, were used as positive controls for comparative analysis in the test.
(§1) The IC50 values for NO inhibitory effects were calculated using SPSS v.20.0 (SPSS Inc., Chicago, IL, USA) and results were given as means ± SD. The mRNA expression levels were compared using variance analysis with GraphPad Prism 7.0 (GraphPad Software Inc., San Diego, CA, USA), and results were expressed as means ± SEM. All tests were carried out in triplicate.

IL-1β mRNA = experiment: qPCR assay of IL-1β mRNA expression in LPS-stimulated RAW264.7 cells; type: cell-based; details: 24 h
Experimental: (§2) The RAW264.7 cells were seeded in 12-well plates at 3 × 10^4 cells/well; after being stimulated by LPS (1.0 μg/mL) and treated with two different concentrations of compounds for 24 h, the total RNA was extracted from the cells with Trizol reagent (Invitrogen, Thermo Fisher Scientific Inc., Waltham, MA, USA). After measuring the concentration, 1 μg of total RNA was used to obtain complementary DNA (cDNA) with a qRT super mix (Bimake Co., Ltd., Houston, SD, USA). The amplification of cDNA was carried out on a Quantitative RT-PCR system (Agilent Technologies, Stratagene, Inc., Santa Clara, CA, USA) using SYBR green qPCR master mix (Bimake Co., Ltd., Houston, SD, USA). The thermal cycling conditions were as follows: 95 °C for 10 min, 40 cycles of 95 °C for 30 s, 55 °C for 1 min, and 72 °C for 1 min, followed by 95 °C for 1 min, 55 °C for 30 s, and 95 °C for 30 s.
as §1

IL-6 mRNA = experiment: qPCR assay of IL-6 mRNA expression in LPS-stimulated RAW264.7 cells; type: cell-based; details: 24 h
Experimental: After measuring the concentration, 1 μg of total RNA was used to obtain complementary DNA (cDNA) with a qRT super mix (Bimake Co., Ltd., Houston, SD, USA). The amplification of cDNA was carried out on a Quantitative RT-PCR system (Agilent Technologies, Stratagene, Inc., Santa Clara, CA, USA) using SYBR green qPCR master mix (Bimake Co., Ltd., Houston, SD, USA). The thermal cycling conditions were as follows: 95 °C for 10 min, 40 cycles of 95 °C for 30 s, 55 °C for 1 min, and 72 °C for 1 min, followed by 95 °C for 1 min, 55 °C for 30 s, and 95 °C for 30 s. […] The mRNA expression levels were compared using variance analysis with GraphPad Prism 7.0 (GraphPad Software Inc., San Diego, CA, USA), and results were expressed as means ± SEM. All tests were carried out in triplicate.

COX-2 mRNA = experiment: qPCR assay of COX-2 mRNA expression in LPS-stimulated RAW264.7 cells; type: cell-based; details: 24 h
Experimental: as §2, §1

iNOS mRNA = experiment: qPCR assay of iNOS mRNA expression in LPS-stimulated RAW264.7 cells; type: cell-based; details: 24 h
Experimental: as §2, §1

Cytotoxicity assay (MTT) = details: mouse
Experimental: (§3) The toxicities of different concentrations of compounds to cells were evaluated using the MTT assay [32, 33]. Firstly, the RAW 264.7 cells were maintained in DMEM with 10% FBS at 37 °C in a humid atmosphere containing 5% CO2. Then, the cells were seeded in 96-well plates (3 × 10^4 cells/well) after being passaged three times at a 1:3 split ratio. […] After being cultured for 24 h, the supernatant (100 μL) was transferred out and MTT (5 mg/mL, 20 μL for each well) was added, and the mixed solvent of 0.012 M HCl, 5% i-PrOH, and 10% sodium dodecyl sulfate (100 μL) was added 4 h later. The absorbance value was measured at 492 nm by a Thermo Multiskan MK3 microplate reader (Thermo-Labsystem, Franklin, MA, USA).

TNF-α mRNA = experiment: qPCR assay of TNF-α mRNA expression in LPS-stimulated RAW264.7 cells; type: cell-based; details: 24 h
Experimental: as §2, §1

[2] = RAW264.7 cells, LPS 1 μg/mL, 24 h, Griess, n = 3, mean ± SD
[3] = at 40 μM and 50 μM, LPS-stimulated RAW264.7 cells
[4] = at 5 μM and 10 μM, LPS-stimulated RAW264.7 cells
[5] = LPS 1.0 μg/mL, RAW264.7 cells, concentration not given
[6] = Mus musculus, RAW264.7, 24 h, RAW264.7 cells, LPS 1 μg/mL, 24 h, Griess, n = 3, mean ± SD
[7] = RAW 264.7 cells, CC50 (median cytotoxic concentration), RAW 264.7 cells, MTT, 24 h, n = 3, >200: CC50 could not be obtained, cell survival rate >98% at 200–6.25 μM
[8] = at 20 μM and 30 μM, vs LPS group, RAW264.7 cells

Experimental for RAW 264.7 cells: as §3

| IC50 [1, 6] | Molecule | SI (selectivity index) [1] | effect on mRNA expression of COX-2 (COX-2 mRNA; [5]) | effect on mRNA expression of iNOS (iNOS mRNA; [5]) | effect on mRNA expression of TNF-α (TNF-α mRNA; [5]) | CC50 at 24 h (Cytotoxicity assay (MTT); [7]) | further results |
| --- | --- | --- | --- | --- | --- | --- | --- |
| 40.1 ± 6.94 µM | Oc1ccc2c(c1)OC[C@H](c1cc3c(cc1O)OCO3)[C@H]2O [Compound 4, (3S,4R)-7,2′-dihydroxy-4′,5′-methylenedioxy-isoflavan-4-ol] | 7.50 | – | – | – | > 200 µM | effect on mRNA expression of IL-1β (IL-1β mRNA; [3]): could inhibit |
| 45.9 ± 4.76 µM | CCCCCC(=O)CCC(=O)OCCc1ccc(O)c(OC)c1 [Compound 5, Homovanillyl-4-oxo-nonanoate] | >4.36 | – | – | – | > 200 µM | – |
| 28.3 µM | COc1ccc(-c2cc3cc(O)c(O)cc3oc2=O)c(OC)c1OC [Compound 6, 3-(2′,3′,4′-trimethoxyphenyl)-6,7-dihydroxycoumarin] | 24.81 | can reduce | can reduce | can reduce | > 200 µM | IC50 [1, 2]: 28.3 ± 6.44 µM; effect on mRNA expression of IL-1β (IL-1β mRNA; [8]): reduced significantly; effect on mRNA expression of iNOS (iNOS mRNA; [8]): reduced significantly; effect on mRNA expression of TNF-α (TNF-α mRNA; [8]): reduced significantly |
| 16.3 ± 4.45 µM | O=C1C[C@@H](c2ccc(O)cc2)Oc2cc(O)ccc21 [Compound 8, liquiritigenin] | 19.25 | – | – | significantly downregulate | > 200 µM | – |
| 6.78 ± 0.59 µM | O=C(/C=C/c1ccc(O)cc1)c1ccc(O)cc1O [Compound 10, isoliquiritigenin] | 19.68 | can reduce | can reduce | can reduce; also recorded: significantly downregulate | 133 ± 2.11 µM | – |
| 123 ± 9.92 µM | COc1ccc(C2COc3cc(OC4OC(CO)C(O)C(O)C4O)ccc3C2O)c(O)c1 [Compound 14, (3S,4R)-4,2′-dihydroxy-4′-methoxy-isoflavanol-7-glucopyranoside] | 5.86 | – | – | – | > 200 µM | – |
| 55.4 ± 3.71 µM | COc1ccc2c(c1)c(CC(=O)O)c(C)n2C(=O)c1ccc(Cl)cc1 [IND, indomethacin, reference compound] | 11.43 | – | – | – | 633 ± 75.1 µM | – |

The next lines start with the molecule.

| Molecule | IC50 [1, 6] | SI (selectivity index) [1] | effect on mRNA expression of COX-2 (COX-2 mRNA; [5]) | effect on mRNA expression of iNOS (iNOS mRNA; [5]) | effect on mRNA expression of TNF-α (TNF-α mRNA; [5]) | CC50 at 24 h (Cytotoxicity assay (MTT); [7]) | further results |
| --- | --- | --- | --- | --- | --- | --- | --- |
| 4,7,2′-trihydroxy-4′-methoxy-isoflavanol [Compound 3] | – | – | – | – | – | – | IC50 [1, 2]: 35.4 ± 2.92 µM; effect on mRNA expression of IL-1β (IL-1β mRNA; [3]): could inhibit; CC50 (RAW 264.7 cells): > 200 µM |
| COC1=CC(=O)C=C(OC)C1=O [Compound 1, 2,6-dimethoxy-1,4-benzoquinone] | – | 4.61 | can reduce | can reduce | can reduce | – | inhibition of NO production compared with L-NIL (in words) ([1]; LPS-stimulated RAW264.7 cells): potent inhibition; IC50 ([1]; Mus musculus, RAW264.7, 24 h): 5.69 ± 0.28 µM; effect on mRNA expression of IL-6 (IL-6 mRNA; [4]): markedly reduced; effect on mRNA expression of COX-2 (COX-2 mRNA; [4]): markedly reduced; effect on mRNA expression of IL-1β (IL-1β mRNA; [4]): markedly reduced; effect on mRNA expression of iNOS (iNOS mRNA; [4]): markedly reduced; CC50 at 24 h (Cytotoxicity assay (MTT); RAW 264.7 cells): 26.2 ± 1.26 µM; effect on mRNA expression of TNF-α (TNF-α mRNA; [4]): markedly reduced |
| COc1c(O)ccc2c1OC[C@H](c1cc3c(cc1O)OCO3)[C@H]2O [Compound 2, (3S,4R)-7,2′-dihydroxy-8-methoxy-4′,5′-methylenedioxy-isoflavan-4-ol] | 46.3 ± 5.83 µM | >4.32 | – | – | – | > 200 µM | – |
| COc1ccc(-c2coc3cc([O-])ccc3c2=O)cc1.[Na+] [Compound 7, formononetin sodium] | – | 14.73 | – | negate the effect | negate the effect | – | IC50 [1, 2]: 22.8 ± 0.55 µM; effect on mRNA expression of IL-6 (IL-6 mRNA; [5]): negate the effect; effect on mRNA expression of IL-1β (IL-1β mRNA; [5]): negate the effect |
| O=c1c(-c2ccc(O)cc2)coc2cc(O)cc(O)c12 [Compound 9, genistein] | 16.9 ± 3.39 µM | 210.84 | can reduce | can reduce | can reduce | – | effect on mRNA expression of COX-2 (COX-2 mRNA; [8]): strikingly downregulated; effect on mRNA expression of iNOS (iNOS mRNA; [8]): strikingly downregulated; CC50 at 24 h (Cytotoxicity assay (MTT)): > 200 µM; effect on mRNA expression of TNF-α (TNF-α mRNA; [8]): strikingly downregulated |
| COc1ccc(-c2coc3cc(O)ccc3c2=O)cc1 [Compound 11, formononetin] | 21.1 ± 4.8 µM | 4.88 | notably downregulated | notably downregulated | – | 103 ± 9.56 µM | – |
| O=c1c(-c2ccc(O)cc2)coc2cc(O)ccc12 [Compound 12, daidzein] | 35.5 ± 2.69 µM | 11.64 | – | – | – | > 200 µM | effect on mRNA expression of IL-6 (IL-6 mRNA; [5]): inhibition; effect on mRNA expression of IL-1β (IL-1β mRNA; [5]): inhibition |
| O=c1c(-c2ccc(O)cc2)coc2cc(O[C@@H]3O[C@H](CO)[C@@H](O)[C@H](O)[C@H]3O)cc(O)c12 [Compound 13, genistin] | 36.4 ± 2.47 µM | – | could not inhibit | could not inhibit | could not inhibit | > 200 µM | effect on mRNA expression of IL-1β (IL-1β mRNA; [5]): declined sharply |
| COc1ccc([C@@H]2COc3cc(O)ccc3C2)c(O[C@@H]2O[C@H](CO)[C@@H](O)[C@H](O)[C@H]2O)c1 [Compound 15, (3R)-vestitol-2′-O-β-D-glucopyranoside] | > 200 µM | <1.98 | – | – | – | > 200 µM | – |
| CC(=N)NCCCC[C@H](N)C(=O)O [L-NIL, L-N^6-(1-iminoethyl)-lysine, reference compound] | – | >10.48 | – | – | – | > 200 µM | IC50 ([1]; Mus musculus, RAW264.7, 24 h): 19.1 ± 1.18 µM |
